Results taken from the supplement of paper PMC13380429.

Tests used:
Details in all cases: 72 h
[1] = system: Caco-2; assay: cell viability relative to DMSO; higher = less toxic
[2] = system: Calu-3; assay: as above
[3] = system: HepG2; assay: as above
[4] = system: U2OS; assay: as above
[5] = system: Vero E6; assay: as above
[6] = system: Caco-2; assay: relative viability EC50 (midpoint between 100% and the lowest measured viability); higher = less toxic
[7] = system: Calu-3; assay: as above
[8] = system: HepG2; assay: as above
[9] = system: U2OS; assay: as above
[10] = system: Vero E6; assay: as above
[11] = system: Caco-2; assay: drug sensitivity score (DSS) for viability; higher = more toxic; extreme values may be limits of the assay
[12] = system: Calu-3; assay: as above
[13] = system: HepG2; assay: as above
[14] = system: U2OS; assay: as above
[15] = system: Vero E6; assay: as above

Compound | cell viability ([1]; 1 nM) [%] | cell viability ([1]; 10 nM) [%] | cell viability ([1]; 100 nM) [%] | cell viability ([1]; 1000 nM) [%] | cell viability ([1]; 10000 nM) [%] | cell viability ([2]; 1 nM) [%] | cell viability ([2]; 10 nM) [%] | cell viability ([2]; 100 nM) [%] | cell viability ([2]; 1000 nM) [%] | cell viability ([2]; 10000 nM) [%] | cell viability ([3]; 1 nM) [%] | cell viability ([3]; 10 nM) [%] | cell viability ([3]; 100 nM) [%] | cell viability ([3]; 1000 nM) [%] | cell viability ([3]; 10000 nM) [%] | cell viability ([4]; 1 nM) [%] | cell viability ([4]; 10 nM) [%] | cell viability ([4]; 100 nM) [%] | cell viability ([4]; 1000 nM) [%] | cell viability ([4]; 10000 nM) [%] | cell viability ([5]; 1 nM) [%] | cell viability ([5]; 10 nM) [%] | cell viability ([5]; 100 nM) [%] | cell viability ([5]; 1000 nM) [%] | cell viability ([5]; 10000 nM) [%] | relative viability EC50 [6] [µM] | relative viability EC50 [7] [µM] | relative viability EC50 [8] [µM] | relative viability EC50 [9] [µM] | relative viability EC50 [10] [µM] | drug sensitivity score [11] | drug sensitivity score [12] | drug sensitivity score [13] | drug sensitivity score [14] | drug sensitivity score [15]
CCn1cnc2c(Nc3cccc(Cl)c3)nc(N[C@@H]3CCCC[C@@H]3N)nc21 | 91.9 | 98.8 | 103 | 96.8 | 27.8 | 97.4 | 90.9 | 108 | 101 | 19.5 | 91.4 | 112 | 103 | 106 | 1.1 | 102 | 94.4 | 102 | 95.3 | 0.9 | 94.1 | 98.9 | 96.1 | 97.2 | 6.3 | 2.82 | 3.25 | 3.5 | 2.8 | 2.94 | 4.4 | 4.4 | 5 | 6.2 | 5.6
CC(C)NCC(O)c1cc(O)cc(O)c1 (stereo not given) [metaproterenol] | 93.4 | 90.8 | 104 | 106 | 95.1 | 101 | 97.2 | 106 | 108 | 98 | 98.6 | 110 | 108 | 108 | 108 | 98.3 | 96.8 | 98.9 | 98.7 | 102 | 94.4 | 95.6 | 92.7 | 94.7 | 113 | > 10 | > 10 | > 10 | > 10 | > 10 | 0 | 0 | 0 | 0 | 0
O=C(Nc1ccc(Br)cc1)c1cc(Br)cc(Br)c1O [tribomsalan] | 90.7 | 90.3 | 94.7 | 105 | 76.3 | 94.4 | 92.2 | 93.2 | 102 | 91.2 | 102 | 104 | 94.5 | 99.7 | 82.7 | 96.6 | 98 | 96 | 102 | 96.4 | 93.5 | 100 | 91.1 | 93.7 | 98.6 | > 10 | > 10 | > 10 | > 10 | > 10 | 0.6 | 0 | 0.4 | 0 | 0
CC(C)(Cc1c[nH]c2ccc(Cl)cc12)NCCOc1ccccc1OCC1CC1 | 104 | 108 | 88.6 | 103 | 3.5 | 91.4 | 98.1 | 103 | 97.4 | 0.9 | 98.1 | 98.7 | 99.3 | 89.3 | -0.3 | 102 | 102 | 102 | 97.3 | 1.5 | 93.9 | 98 | 93.4 | 99.4 | 24.4 | 3.33 | 2.98 | 2.28 | 2.97 | 3.11 | 5.1 | 5.9 | 7.3 | 5.8 | 4.3
N#CC(c1ccccc1)(c1ccccc1)c1ccccc1Cl [TRAM-39] | 94.3 | 93.2 | 90.8 | 96.9 | 92.6 | 93.8 | 93 | 107 | 106 | 92.9 | 105 | 102 | 93.7 | 92.7 | 103 | 101 | 96.5 | 95.7 | 97.3 | 94.3 | 103 | 97.8 | 97.8 | 95.2 | 98.5 | > 10 | > 10 | > 10 | > 10 | > 10 | 0 | 0 | 0 | 0 | 0
CO/N=C(\C(=O)N[C@@H]1C(=O)N2C(C(=O)[O-])=C(C[N+]3(C)CCCC3)CS[C@H]12)c1csc(N)n1 [cefepime] | 90.8 | 96.8 | 106 | 102 | 122 | 104 | 105 | 113 | 92.8 | 102 | 102 | 86 | 121 | 82.6 | 102 | 99.2 | 101 | 96.6 | 102 | 99.4 | 100 | 101 | 104 | 107 | 99.3 | > 10 | > 10 | > 10 | > 10 | > 10 | 0 | 0 | 0 | 0 | 0
N=C(Nc1ccccc1)c1cccs1 [LTA] | 89.4 | 88.4 | 98.1 | 93.7 | 82.8 | 97.6 | 104 | 97.4 | 104 | 91.6 | 105 | 105 | 96.8 | 99.1 | 110 | 99.9 | 104 | 95.9 | 104 | 95.7 | 99.7 | 101 | 93.5 | 99.1 | 103 | > 10 | > 10 | > 10 | > 10 | > 10 | 0 | 0 | 0 | 0 | 0
CC(=O)N(OCc1ccccc1)[C@@H]1c2cc(C#N)ccc2OC(C)(C)[C@H]1O | 97.8 | 100 | 99 | 96.5 | 103 | 103 | 96.9 | 98 | 103 | 106 | 95.1 | 103 | 96.2 | 109 | 109 | 97.5 | 96.1 | 105 | 94.5 | 94.8 | 95.3 | 97.7 | 94.2 | 99.9 | 109 | > 10 | > 10 | > 10 | > 10 | > 10 | 0 | 0 | 0 | 0 | 0
CO[C@H]1C[C@H](O[C@H]2CC[C@@]3(C)[C@H](CC[C@@H]4[C@@H]3CC[C@]3(C)[C@@H](C5=CC(=O)OC5)[C@@H](OC(C)=O)C[C@]43O)C2)O[C@@H](C)[C@@H]1O [oleandrin] | 98.1 | 79.5 | 17.8 | 19.5 | 20.9 | 102 | 89.3 | 31.6 | 18.4 | 17.4 | 102 | 107 | 38.1 | 7.4 | 6.4 | 104 | 98.4 | 10.8 | 7.3 | 9.5 | 101 | 87.5 | 1.1 | 1.1 | 1.3 | 0.0155 | 0.0355 | 0.0769 | 0.0334 | 0.0214 | 28.6 | 24.5 | 24.1 | 28.1 | 32.3
CN1CCN(c2ccc(-c3cccc(CN4CCOCC4)c3)cc2NC(=O)c2c[nH]c(=O)cc2C(F)(F)F)CC1 [OICR-9429] | 106 | 97.7 | 94.1 | 92 | 98.2 | 97 | 108 | 98 | 104 | 88.3 | 108 | 98.7 | 99.7 | 95.8 | 95 | 102 | 98.2 | 99.2 | 97.4 | 100 | 99.1 | 101 | 98 | 100 | 95.1 | > 10 | > 10 | > 10 | > 10 | > 10 | 0 | 0 | 0 | 0 | 0
CN1CC[C@@H](NC(=O)Nc2ccc(C#N)cc2)C[C@@H]1c1nc2ccccc2[nH]1 [glasdegib] | 98.4 | 96.5 | 94.1 | 97.1 | 83.5 | 92.6 | 110 | 96.9 | 111 | 104 | 108 | 99 | 99.1 | 96.2 | 92 | 96.3 | 102 | 94.9 | 98.5 | 98.3 | 102 | 103 | 102 | 100 | 97.1 | > 10 | > 10 | > 10 | > 10 | > 10 | 0.6 | 0 | 0 | 0 | 0
CC[C@H](CC[C@@H](C)[C@H]1CC[C@H]2[C@@H]3CC=C4C[C@@H](O)CC[C@]4(C)[C@H]3CC[C@]12C)C(C)C [beta-Sitosterol] | 95.1 | 108 | 99.4 | 97.6 | 107 | 91.6 | 105 | 99 | 93.7 | 106 | 88.3 | 114 | 93.3 | 98.8 | 109 | 96.4 | 99.1 | 99.6 | 101 | 97.4 | 92.7 | 105 | 92.4 | 99.2 | 108 | > 10 | > 10 | > 10 | > 10 | > 10 | 0 | 0 | 0 | 0 | 0
CO/N=C(\C(=O)N[C@@H]1C(=O)N2C(C(=O)OCOC(=O)C(C)(C)C)=C(C)CS[C@H]12)c1csc(N)n1 [cefetamet-pivoxil] | 108 | 96.5 | 105 | 99.7 | 97.9 | 104 | 93.2 | 102 | 114 | 103 | 102 | 113 | 90.9 | 97.8 | 93 | 102 | 93.5 | 99.6 | 104 | 99.5 | 91.5 | 103 | 89.5 | 91.7 | 108 | > 10 | > 10 | > 10 | > 10 | > 10 | 0 | 0 | 0 | 0 | 0
COc1cc(C)c(/C=C/C(C)=C/C=C/C(C)=C/C(=O)O)c(C)c1C [acitretin] | 89.3 | 93.2 | 99.3 | 89.4 | 91.4 | 97.5 | 94.8 | 83.9 | 83.5 | 75.3 | 101 | 96.7 | 98.7 | 106 | 105 | 100 | 101 | 94.4 | 93.7 | 92.1 | 103 | 99.6 | 99.6 | 99.3 | 102 | > 10 | > 10 | > 10 | > 10 | > 10 | 0 | 3.8 | 0 | 0 | 0
